The text below walks through data of EP4385508A1, “FURAN FATTY ACIDS FOR ENHANCING MUSCLE MASS” (Centre de Coopération Internationale en Recherche …, priority 2022, dated 2024).

SMILES strings stand for the structures.

Experiment [1] has as its system C57BL/6J mice. Briefly: High Fat and High Sucrose (HFHS) diet with FuFA-F2, quadriceps muscle mass. Format: in vivo. Particulars: 12 weeks. Here is the method:
Forty six-weeks old male C57BL/6J mice (Charles River, L'Arbresle, France), weighing about 21 g, were housed (5 per cage) under conditions of constant temperature (20-22°C), humidity (45-50%) and a standard dark cycle (20.00-08.00 hours). The mice were randomized, according to their initial weight, into four groups of ten animals and fed for 12 weeks with one of the four following semi-purified diets: 1) control diet, 2) HFHS diet, 3) HFHS + FuFA-F2 (0.048%, 40mg/kg body weight/day), 4) HFHS + FuFA-F2 (0.127%, 105mg/kg body weight/day). In this example, "FuFA-F2" is the triacylglycerol form of FuFA-F2.
The control diet contains 5% lipids as a mixture of rapeseed oil, high oleic sunflower oil, sunflower oil and linseed oil (oil mixture of Carrefour), the high fat high sucrose (HFHS) diets contain 25% lipids (5% of a mixture of rapeseed oil, high oleic sunflower oil, sunflower oil and linseed oil and 20% of lard) and 30% sucrose. The detailed composition of the diets is given in Table 1 at the end of the present description. […]
Throughout the study, mice were given free access to food and tap water. Mice body weight was followed weekly and food consumption was determined every two days (during the week) or three days (the week-end). […]
Results were expressed as means ± SD. […]

Experiment [2] concerns Akt (Ser473). The experiment in a line: Akt phosphorylation by Western blot in C2C12 myotubes. Format: cell-based, Mouse. Particulars: FuFA-F2 together with insulin; 3-day pretreatment, 2 hours low-glucose, 30 minutes. The procedure:
(§1) Mouse myoblasts of the C2C12 cell line (ATCC) were seeded at a plating density of 7000 cells/cm2 in 6-well plates. They were grown in DMEM high glucose (4.5g/l) supplemented with gentamycin (50 µg/mL), amphotericin (50 µg/mL), and fetal calf serum (10%). Terminal differentiation was induced at cell confluence by lowering the medium serum concentration (0.5%).
(§2) When indicated, FuFA-F2 was added to the culture medium at the indicated concentration. For the differentiation studies, FuFA-F2 was added at the confluence at the same time as the change in media condition. Three doses of FuFA-F2 were studied at a final concentration of 1, 10, or 50 µM. Human insulin was used at a concentration of 100 nM.
Protein levels were assessed by Western blotting. Total proteins were measured using the Bio-Rad protein assay (Hercules, CA, USA) according to the manufacturer's instructions. Total proteins were lysed in RIPA buffer (20mM Tris, 150mM NaCl, 1mM EDTA, 1% NP40, pH 7.5 + complete cocktail protease inhibitors + Pierce phosphatase inhibitors tablet). 40 µg of cell extracts were loaded and blotted onto a nitrocellulose membrane. The membranes were washed, blocked with 5% nonfat milk and incubated in primary antibody overnight at 4°C. […]

In experiment [3] the test system is AMP activated protein kinase (AMPK). The experiment in a line: AMPK phosphorylation by Western blot in C2C12 myotubes. Format: cell-based, Mouse. Particulars: whatever the dose. The procedure:
as §1, §2
Protein levels were assessed by Western blotting. Total proteins were measured using the Bio-Rad protein assay (Hercules, CA, USA) according to the manufacturer's instructions. […]
AMP activated protein kinase (AMPK) is a crucial cellular energy sensor protein and is activated when intracellular ATP level decreases to regulate autophagy initiation (Hardie et al., 2012, Nat Rev Mol Cell Bio, Vol. 13 (4) : 251-262). […] The autophagy-related signaling was further evaluated by measuring the MTORC1 mediated phosphorylation […] at Ser757 which disrupts the interaction between ULK1 and AMPK. […] Therefore, the autophagic flux was assessed by measuring the conversion of LC3-I to LC3-II, through lipidation.

For `CCCCCc1cc(C)c(CCCCCCCCC(=O)O)o1` [FuFA-F2], the quadriceps muscle mass result in experiment [1] (HFHS diet + FuFA-F2 (triacylglycerol form) at any dose (40 and 105mg/kg body weight/day), compared to HFHS alone) was “increased”; in experiment [1] (highest dose 105mg/kg body weight/day by comparison to lowest dose 40mg/kg body weight/day, HFHS diet, triacylglycerol form), “significantly increased”. For the same molecule, the “insulin-induced phosphorylation of Akt” value in experiment [2] was “did not alter”. Moreover, the “Activation level of AMPK, phosphorylation at Thr172” value in experiment [3] is “significantly decreased”.
